We go through four sequences from patent US20070128217A1 (priority 2003, published 2007).

Test [1] deals with antibodies in sera from SARS patients (sera 1a, 1b, 2, 6, 37, 62, London, SARS-yellow, SARS-green). The test is classed as binding, human. Also on record: Binding of serum 6 to linear peptides of protein X1 of SARS-CoV Urbani / Binding of serum 37 to linear peptides of protein X1 of SARS-CoV Urbani / Binding of serum 6 to looped/cyclic peptide (PEPSCAN-ELISA) / Binding of serum 37 to looped/cyclic peptide (PEPSCAN-ELISA) / Binding of serum 37 to looped/cyclic peptides of protein X1 of SARS-CoV Urbani / Binding of serum 6 to linear peptides of protein X2 / Binding of serum 37 to linear peptides of protein X2 / Binding of serum 37 to looped/cyclic peptides of protein X2 of SARS-CoV Urbani / Binding of serum 6 to linear peptides of protein M of SARS-CoV Urbani / Binding of serum 37 to linear peptides of protein M of SARS-CoV Urbani / Binding of serum 6 to looped/cyclic peptides of protein M of SARS-CoV Urbani / Binding of serum 37 to looped/cyclic peptides of protein M of SARS-CoV Urbani / Binding of serum 6 to linear peptides of protein X3 of SARS-CoV Urbani / Binding of serum 37 to linear peptides of protein X3 of SARS-CoV Urbani / Binding of serum 37 to looped/cyclic peptides of protein X3 of SARS-CoV Urbani / Binding of serum 6 to linear peptides of protein X4 of SARS-CoV Urbani / Binding of serum 37 to linear peptides of protein X4 of SARS-CoV Urbani / Binding of serum 37 to looped/cyclic peptides of protein X4 of SARS-CoV Urbani / Binding of serum 6 to linear peptides of protein X5 of SARS-CoV Urbani / Binding of serum 37 to linear peptides of protein X5 of SARS-CoV Urbani / Binding of serum 37 to looped/cyclic peptides of protein X5 of SARS-CoV Urbani / Binding of serum 6 to linear peptides of protein N of SARS-CoV Urbani / Binding of serum 37 to linear peptides of protein N of SARS-CoV Urbani / Binding of serum 6 to linear peptide (PEPSCAN-ELISA) / Binding of serum 1a to looped/cyclic peptides of protein N of SARS-CoV Urbani / Binding of serum 1b to looped/cyclic peptides of protein N of SARS-CoV Urbani / Binding of serum 2 to looped/cyclic peptides of protein N of SARS-CoV Urbani / Binding of serum 6 to looped/cyclic peptides of protein N of SARS-CoV Urbani / Binding of serum 37 to looped/cyclic peptides of protein N of SARS-CoV Urbani / Binding of serum 62 to looped/cyclic peptides of protein N of SARS-CoV Urbani / Binding of serum London to looped/cyclic peptides of protein N of SARS-CoV Urbani / Binding of serum SARS-green to looped/cyclic peptides of protein N of SARS-CoV Urbani: unit not given here.

The subject of test [2] is control sera (pooled serum of ten healthy LUMC hospital workers; commercial negative donor pooled serum from the Dutch bloodbank). It counts as binding, human. Also on record: Binding of Control serum LUMC to linear peptides / Binding of Control serum Blood-bank to linear peptides / Binding of Control serum LUMC to looped peptides / Binding of Control Serum Blood-Bank to Looped peptides / Binding of Control serum LUMC to linear peptides of the protein M of SARS-CoV Urbani / Binding of Control serum Blood-bank to linear peptides of the protein M of SARS-CoV Urbani / Binding of Control serum LUMC to looped peptides of the protein M of SARS-CoV Urbani / Binding of Control Serum Blood-Bank to Looped peptides of the protein M of SARS-CoV Urbani: unit not given here.

The subject of test [3] is rabbit serum obtained by immunizing a rabbit with the SARS-CoV strain Frankfurt 1. It counts as binding. On the set-up: Binding of a rabbit serum to linear peptides / Binding of a rabbit serum to looped peptides / Rabbit serum linear peptides / Rabbit serum looped peptides / Binding of a rabbit serum to linear peptides of protein N of SARS-CoV Urbani (Rabbit serum linear peptides) / Binding of a rabbit serum to looped/cyclic peptides of protein N of SARS-CoV Urbani (Rabbit serum looped peptides): unit not given here.

As for LVAAGMEAQFLYLYA, in test [1], the “Binding of serum 1a to linear peptides of protein X1 of SARS-CoV Urbani” value amounted to 0.8, the “Binding of serum 1a to looped/cyclic peptide (PEPSCAN-ELISA)” value is reported as 0.5, the “Binding of serum 1b to linear peptides of protein X1 of SARS-CoV Urbani” value is reported as 0.7 and the “Binding of serum 1b to looped/cyclic peptide (PEPSCAN-ELISA)” value worked out at 0.4. Further, in test [1], the “Binding of serum 2 to linear peptides of protein X1 of SARS-CoV Urbani” value was determined as 0.6, the “Binding of serum 2 to looped/cyclic peptide (PEPSCAN-ELISA)” value came to 0.5, the “Binding of serum 6 to linear peptides of protein X1 of SARS-CoV Urbani” value is recorded as 0.4 and the “Binding of serum 6 to looped/cyclic peptide (PEPSCAN-ELISA)” value is on record as 0.3. In addition, in test [1], the “Binding of serum 37 to linear peptides of protein X1 of SARS-CoV Urbani” value is recorded as 0.6, the “Binding of serum 37 to looped/cyclic peptide (PEPSCAN-ELISA)” value came to 0.5, the “Binding of serum 62 to linear peptides of protein X1 of SARS-CoV Urbani” value was determined as 0.5 and the “Binding of serum 62 to looped/cyclic peptide (PEPSCAN-ELISA)” value is 0.5. In test [1], the “Binding of serum London to linear peptides of protein X1 of SARS-CoV Urbani” value is 0.2, the “Binding of serum London to looped/cyclic peptide (PEPSCAN-ELISA)” value was determined as 0.2, the “Binding of serum SARS-green to linear peptides of protein X1 of SARS-CoV Urbani” value worked out at 0.2 and the “Binding of serum SARS-green to looped/cyclic peptide (PEPSCAN-ELISA)” value is 0.3. In test [1], the “Binding of serum SARS-yellow to linear peptides of protein X1 of SARS-CoV Urbani” value came to 0.3 and the “Binding of serum SARS-yellow to looped/cyclic peptide (PEPSCAN-ELISA)” value was 0.6. In addition, in test [2], the “Binding of Control Serum Blood-Bank to Looped peptides” value is 0.5, the “Binding of Control serum Blood-bank to linear peptides” value came out at 0.4, the “Binding of Control serum LUMC to linear peptides” value was 1.1 and the “Binding of Control serum LUMC to looped peptides” value is listed as 0.6. In addition, in test [3], the “Binding of a rabbit serum to linear peptides” value is given as 0.1 and the “Binding of a rabbit serum to looped peptides” value was 0.6.

Take LVDFQVTIAEILIII: in test [1], the “Binding of serum 1a to linear peptides of protein X3 of SARS-CoV Urbani” value is reported as 0.8, the “Binding of serum 1a to looped/cyclic peptides of protein X3 of SARS-CoV Urbani” value turned out to be 0.7, the “Binding of serum 1b to linear peptides of protein X3 of SARS-CoV Urbani” value is 0.6 and the “Binding of serum 1b to looped/cyclic peptides of protein X3 of SARS-CoV Urbani” value turned out to be 0.4. In addition, in test [1], the “Binding of serum 2 to linear peptides of protein X3 of SARS-CoV Urbani” value was 0.7, the “Binding of serum 2 to looped/cyclic peptides of protein X3 of SARS-CoV Urbani” value amounted to 0.6, the “Binding of serum 6 to linear peptides of protein X3 of SARS-CoV Urbani” value came to 0.5 and the “Binding of serum 6 to looped/cyclic peptides of protein X3 of SARS-CoV Urbani” value came out at 0.3. In addition, in test [1], the “Binding of serum 37 to linear peptides of protein X3 of SARS-CoV Urbani” value is 0.6, the “Binding of serum 37 to looped/cyclic peptides of protein X3 of SARS-CoV Urbani” value worked out at 0.5, the “Binding of serum 62 to linear peptides of protein X3 of SARS-CoV Urbani” value stood at 0.6 and the “Binding of serum 62 to looped/cyclic peptides of protein X3 of SARS-CoV Urbani” value amounted to 0.6. In test [1], the “Binding of serum London to linear peptides of protein X3 of SARS-CoV Urbani” value came out at 0.6, the “Binding of serum London to looped/cyclic peptides of protein X3 of SARS-CoV Urbani” value stood at 0.2, the “Binding of serum SARS-green to linear peptides of protein X3 of SARS-CoV Urbani” value stood at 0.4 and the “Binding of serum SARS-green to looped/cyclic peptides of protein X3 of SARS-CoV Urbani” value stood at 0.2. Moreover, in test [1], the “Binding of serum SARS-yellow to linear peptides of protein X3 of SARS-CoV Urbani” value turned out to be 0.7 and the “Binding of serum SARS-yellow to looped/cyclic peptides of protein X3 of SARS-CoV Urbani” value was determined as 0.6. In test [2], the “Binding of Control Serum Blood-Bank to Looped peptides of the protein X3 of SARS-CoV Urbani” value is 0.6, the “Binding of Control serum Blood-bank to linear peptides of the protein X3 of SARS-CoV Urbani” value was 0.8, the “Binding of Control serum LUMC to linear peptides of the protein X3 of SARS-CoV Urbani” value came out at 0.9 and the “Binding of Control serum LUMC to looped peptides of the protein X3 of SARS-CoV Urbani” value was found to be 0.7. Besides, in test [3], the “Rabbit serum linear peptides” value was 0.3 and the “Rabbit serum looped peptides” value was 0.3.

In the case of LVIGAVIIRGHLRMA, in test [1], the “Binding of serum 1a to linear peptides of protein M of SARS-CoV Urbani” value was 0.7, the “Binding of serum 1a to looped/cyclic peptides of protein M of SARS-CoV Urbani” value came to 0.8, the “Binding of serum 1b to linear peptides of protein M of SARS-CoV Urbani” value came to 0.5 and the “Binding of serum 1b to looped/cyclic peptides of protein M of SARS-CoV Urbani” value was 0.4. In addition, in test [1], the “Binding of serum 2 to linear peptides of protein M of SARS-CoV Urbani” value was 0.5, the “Binding of serum 2 to looped/cyclic peptides of protein M of SARS-CoV Urbani” value stood at 0.8, the “Binding of serum 6 to linear peptides of protein M of SARS-CoV Urbani” value worked out at 0.6 and the “Binding of serum 6 to looped/cyclic peptides of protein M of SARS-CoV Urbani” value was 1.2. Moreover, in test [1], the “Binding of serum 37 to linear peptides of protein M of SARS-CoV Urbani” value stood at 0.4, the “Binding of serum 37 to looped/cyclic peptides of protein M of SARS-CoV Urbani” value turned out to be 0.7, the “Binding of serum 62 to linear peptides of protein M of SARS-CoV Urbani” value turned out to be 0.4 and the “Binding of serum 62 to looped/cyclic peptides of protein M of SARS-CoV Urbani” value amounted to 0.8. For the same sequence, in test [1], the “Binding of serum London to linear peptides of protein M of SARS-CoV Urbani” value is 0.3, the “Binding of serum SARS-green to linear peptides of protein M of SARS-CoV Urbani” value is reported as 0.4, the “Binding of serum SARS-green to looped/cyclic peptides of protein M of SARS-CoV Urbani” value stood at 0.3 and the “Binding of serum SARS-yellow to linear peptides of protein M of SARS-CoV Urbani” value stood at 0.3. Further, the “Binding of serum SARS-yellow to looped/cyclic peptides of protein M of SARS-CoV Urbani” value in test [1] was 0.7. For the same sequence, in test [2], the “Binding of Control Serum Blood-Bank to Looped peptides of the protein M of SARS-CoV Urbani” value is given as 0.7, the “Binding of Control serum Blood-bank to linear peptides of the protein M of SARS-CoV Urbani” value is 0.6, the “Binding of Control serum LUMC to linear peptides of the protein M of SARS-CoV Urbani” value was 0.7 and the “Binding of Control serum LUMC to looped peptides of the protein M of SARS-CoV Urbani” value worked out at 0.7. Besides, in test [3], the “Rabbit serum linear peptides” value is on record as 0.2 and the “Rabbit serum looped peptides” value came out at 1.4.

For the sequence LVIGVAFLAVFQSAT, in test [1], the “Binding of serum 1a to linear peptides of protein X1 of SARS-CoV Urbani” value is on record as 0.7, the “Binding of serum 1a to looped/cyclic peptide (PEPSCAN-ELISA)” value turned out to be 0.8, the “Binding of serum 1b to linear peptides of protein X1 of SARS-CoV Urbani” value was 0.6 and the “Binding of serum 1b to looped/cyclic peptide (PEPSCAN-ELISA)” value was found to be 0.6. Moreover, in test [1], the “Binding of serum 2 to linear peptides of protein X1 of SARS-CoV Urbani” value was found to be 0.6, the “Binding of serum 2 to looped/cyclic peptide (PEPSCAN-ELISA)” value is 0.7, the “Binding of serum 6 to linear peptides of protein X1 of SARS-CoV Urbani” value is recorded as 0.4 and the “Binding of serum 6 to looped/cyclic peptide (PEPSCAN-ELISA)” value is given as 0.7. Moreover, in test [1], the “Binding of serum 37 to linear peptides of protein X1 of SARS-CoV Urbani” value is recorded as 0.6, the “Binding of serum 37 to looped/cyclic peptide (PEPSCAN-ELISA)” value is given as 0.8, the “Binding of serum 62 to linear peptides of protein X1 of SARS-CoV Urbani” value was 0.6 and the “Binding of serum 62 to looped/cyclic peptide (PEPSCAN-ELISA)” value turned out to be 1.0. In addition, in test [1], the “Binding of serum London to linear peptides of protein X1 of SARS-CoV Urbani” value is 0.3, the “Binding of serum London to looped/cyclic peptide (PEPSCAN-ELISA)” value amounted to 0.3, the “Binding of serum SARS-green to linear peptides of protein X1 of SARS-CoV Urbani” value stood at 0.3 and the “Binding of serum SARS-green to looped/cyclic peptide (PEPSCAN-ELISA)” value was determined as 0.5. In addition, in test [1], the “Binding of serum SARS-yellow to linear peptides of protein X1 of SARS-CoV Urbani” value is recorded as 0.4 and the “Binding of serum SARS-yellow to looped/cyclic peptide (PEPSCAN-ELISA)” value worked out at 0.7. Moreover, in test [2], the “Binding of Control Serum Blood-Bank to Looped peptides” value is 1.1, the “Binding of Control serum Blood-bank to linear peptides” value is recorded as 0.6, the “Binding of Control serum LUMC to linear peptides” value was 0.6 and the “Binding of Control serum LUMC to looped peptides” value was 1.0. In test [3], the “Binding of a rabbit serum to linear peptides” value came to 0.3 and the “Binding of a rabbit serum to looped peptides” value was 1.2.
